Assay results from US20230310445A1, “LOX ENZYME INHIBITING METHODS AND COMPOSITIONS” (ANOVIA BIOSCIENCES, INC., priority 2020, published 2023).

Key:
[1] = biological target: T1, Recombinant human LOXL2 (lysyl oxidase like 2) (Homo sapiens, UniProt Q9Y4K0); experiment: LOXL2 inhibition assay (fluorometric, cadaverine/Amplex Red/HRP); format: biochemical; details: IC50 class; recombinant human LOXL2, cadaverine substrate; read-out: Activity Range LOXL2
T1 construct: purchased R&D systems
T1 sequence (Q9Y4K0 26-774): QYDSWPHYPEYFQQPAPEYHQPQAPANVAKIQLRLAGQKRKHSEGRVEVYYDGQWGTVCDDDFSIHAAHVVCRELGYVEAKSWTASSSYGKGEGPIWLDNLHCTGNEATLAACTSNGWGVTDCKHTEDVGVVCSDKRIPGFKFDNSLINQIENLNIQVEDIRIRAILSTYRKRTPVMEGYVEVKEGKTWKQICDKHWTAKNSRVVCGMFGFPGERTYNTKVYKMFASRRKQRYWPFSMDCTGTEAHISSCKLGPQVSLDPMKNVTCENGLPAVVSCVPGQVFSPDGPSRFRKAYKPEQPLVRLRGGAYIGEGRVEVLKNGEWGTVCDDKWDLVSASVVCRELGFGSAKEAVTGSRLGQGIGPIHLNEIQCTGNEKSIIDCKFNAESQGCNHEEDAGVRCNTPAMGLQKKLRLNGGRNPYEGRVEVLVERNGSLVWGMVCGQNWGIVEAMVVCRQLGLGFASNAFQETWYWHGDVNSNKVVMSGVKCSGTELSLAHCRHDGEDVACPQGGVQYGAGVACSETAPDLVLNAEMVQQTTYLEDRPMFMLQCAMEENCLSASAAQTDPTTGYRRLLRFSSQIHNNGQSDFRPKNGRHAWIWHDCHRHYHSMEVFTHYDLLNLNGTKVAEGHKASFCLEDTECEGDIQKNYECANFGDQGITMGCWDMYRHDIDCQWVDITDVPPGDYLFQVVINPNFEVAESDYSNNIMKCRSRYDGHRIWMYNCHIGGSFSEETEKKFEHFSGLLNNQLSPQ
Procedure, shortened: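 Both enzymes assayed in 1.2 M urea, 50 mM sodium borate pH 8.0, 10 mM CaCl, with 30 min compound–enzyme preincubation at 37° C before cadaverine/Amplex Red/HRP addition. Fluorescence followed 60 min at 37° C; linear-slope rates, background-subtracted, as % of DMSO control, fitted by 4-parameter variable-slope curve (bottom fixed at 0).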

[2] = biological target: T2, Recombinant human LOXL3 (lysyl oxidase like 3) (Homo sapiens, UniProt P58215); experiment: LOXL3 inhibition assay (fluorometric, cadaverine/Amplex Red/HRP); format: biochemical; details: IC50 class; recombinant human LOXL3, cadaverine substrate; read-out: Activity Range LOXL3
T2 construct: purchased R&D systems
T2 sequence (P58215 26-753): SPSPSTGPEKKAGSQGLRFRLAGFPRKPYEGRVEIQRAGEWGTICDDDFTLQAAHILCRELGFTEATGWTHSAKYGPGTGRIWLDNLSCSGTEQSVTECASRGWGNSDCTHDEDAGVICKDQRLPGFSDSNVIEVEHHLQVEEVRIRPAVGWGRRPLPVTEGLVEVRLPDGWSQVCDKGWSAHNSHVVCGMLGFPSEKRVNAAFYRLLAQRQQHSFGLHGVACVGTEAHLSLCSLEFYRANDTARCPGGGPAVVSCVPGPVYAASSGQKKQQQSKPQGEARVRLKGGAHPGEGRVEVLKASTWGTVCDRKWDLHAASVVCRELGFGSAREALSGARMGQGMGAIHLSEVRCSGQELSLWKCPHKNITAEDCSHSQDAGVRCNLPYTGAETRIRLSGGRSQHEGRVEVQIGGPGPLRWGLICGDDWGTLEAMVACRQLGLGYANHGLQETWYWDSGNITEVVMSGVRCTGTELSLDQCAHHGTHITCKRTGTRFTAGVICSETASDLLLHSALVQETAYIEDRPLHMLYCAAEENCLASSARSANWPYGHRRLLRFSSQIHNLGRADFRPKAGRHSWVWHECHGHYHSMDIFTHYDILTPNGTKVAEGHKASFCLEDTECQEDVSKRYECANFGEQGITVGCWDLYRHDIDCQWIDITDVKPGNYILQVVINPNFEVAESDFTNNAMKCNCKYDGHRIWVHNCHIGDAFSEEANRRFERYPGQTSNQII
Description: The ability of compounds to inhibit one or more of the lysyl oxidases LOXL2 and/or LOXL3 was determined using a fluorometric assay. This assay measures the activity of lysyl oxidases by coupling the reaction with horseradish peroxidase-catalyzed […]. The activity assay protocol uses cadaverine as substrate that releases hydrogen peroxide upon transformation by the specific LOX family enzyme present in the sample. Hydrogen peroxide is in turn detected using a red fluorescence substrate for HRP-coupled reactions (Amplex Red Enzyme Assays, Thermo Scientific Fisher). This leads to increase in fluorescence that can be easily detected at Ex/Em=540/590 nm in a fluorescence microplate reader.
Enzymes: Recombinant human LOXL2 (lysyl oxidase like 2) and recombinant human LOXL3 (lysyl oxidase like 3) were purchased from R&D systems and assays were performed in 1.2 M urea, 50 mM sodium borate buffer pH 8.0, and 10 mM CaCl.
Reaction: Final concentration in the LOXL2 and LOXL3 assays were as following and performed in a total volume of […]:
Experimental procedure: 5 μl of freshly prepared reaction buffer were delivered to reaction wells. Compounds were resuspended in 100% DMSO at 10 mM and delivered into buffer using acoustic technology (Echo550; nanoliter range). A 3× solution of LOXL2 or LOXL3 in reaction buffer was prepared (“enzyme solution”) and 5 μL of enzyme solution was added into the reaction wells. Buffer only was added to column 1 for no protein control. Reactions were incubated for 30 minutes at 37° C. A 3×mixture of cadaverine, Amplex Red, and HRP (“Substrate/Detection Mix) was prepared and subsequently 5 μL of the mixture added to each reaction well. Progress of reactions was monitored for 60 minutes at 37° C. using Clariostar plate reader (ex 530-12, ems 600-40). For all activity assays, pan-LOX inhibitor CCT365623 (Tang et al, 2017) and LOXL2/LOXL3 inhibitor PAT-1251 (PharmaKea) were included as standards.
Data analysis: Slope of the linear portion of the progress curve was calculated using Clariostar software. Typical analysis interval was between 8-30 min, but varied between experiments. The background subtracted signals (No protein wells are considered as background) were converted to % activity relative to DMSO controls. Data was analyzed using GraphPad Prism 4 with “sigmoidal dose-response (variable slope)”; 4 parameters with Hill Slope. Constraints: Bottom=Constant equal to 0. Top=Must be less than 120.

NCc1cccc(S(=O)(=O)N2C[C@H](C(=O)N3CCOCC3)C[C@@H](c3ccccc3)C2)n1 (racemic) [Example 114T, trans-(1-((6-(Aminomethyl)pyridin-2-yl)sulfonyl)-5-phenylpiperidin-3-yl)(morpholino)methanone 2,2,2-trifluoroacetate]
IC50 [1]: 1 to 30 µM
IC50 [2]: > 30 µM

NCc1cccc(S(=O)(=O)N2C[C@@H](C(=O)N3CCS(=O)(=O)CC3)C[C@@H](c3ccccc3)C2)n1 (racemic) [Example 115, cis-(1-((6-(Aminomethyl)pyridin-2-yl)sulfonyl)-5-phenylpiperidin-3-yl)(1,1-dioxidothiomorpholino)methanone 2,2,2-trifluoroacetate]
IC50 [1]: > 30 µM
IC50 [2]: > 30 µM
